In ChEMBL document CHEMBL1201862, “PubChem BioAssay data set” (2004):
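Assay format: 96-well plates, 48-hour exposure. Abbreviation: GI50, concentration required for 50% inhibition of growth.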 Active and inactive are the calls of the source. Rule as the data show it: active = GI50 up to about 1.1 µM and inactive = higher.

Tests used:
Test in all cases: growth of human tumour cells (NCI), 48 h
[1] = tested on: EKVX
[2] = tested on: NCI-H23
[3] = tested on: Malme-3M
[4] = tested on: SNB-19
[5] = tested on: SK-OV-3
[6] = tested on: SK-MEL-5
[7] = tested on: SN12C
[8] = tested on: COLO 205
[9] = tested on: 786-0
[10] = tested on: HCT-15
[11] = tested on: A549
[12] = tested on: UO-31
[13] = tested on: SNB-75
[14] = tested on: M14
[15] = tested on: BT-549
[16] = tested on: T47D
[17] = tested on: OVCAR-5
[18] = tested on: SK-MEL-28
[19] = tested on: HOP-92
[20] = tested on: U-251
[21] = tested on: NCI/ADR-RES
[22] = tested on: UACC-257
[23] = tested on: NCI-H460
[24] = tested on: Hs-578T
[25] = tested on: HL-60
[26] = tested on: IGROV-1
[27] = tested on: K562
[28] = tested on: A498
[29] = tested on: UACC-62
[30] = tested on: NCI-H522
[31] = tested on: SW-620
[32] = tested on: HT-29
[33] = tested on: MDA-N
[34] = tested on: CAKI-1
[35] = tested on: SF-539
[36] = tested on: MDA-MB-435
[37] = tested on: TK-10
[38] = tested on: ACHN
[39] = tested on: KM12
[40] = tested on: RXF 393
[41] = tested on: OVCAR-8
[42] = tested on: OVCAR-3
[43] = tested on: SF-295
[44] = tested on: SK-MEL-2
[45] = tested on: RPMI-8226
[46] = tested on: SF-268
[47] = tested on: LOX IMVI
[48] = tested on: MOLT-4
[49] = tested on: HOP-62
[50] = tested on: PC-3
[51] = tested on: CCRF-CEM
[52] = tested on: HCT-116
[53] = tested on: MDA-MB-231
[54] = tested on: NCI-H226
[55] = tested on: DU-145

`CC1=NNC(=O)C1C1CC(c2c[nH]c3ccccc23)=NN(c2ccccc2)C1=O` (stereo not given) was tested, and the GI50 [1] was > 100 µM (inactive), the GI50 [2] was > 100 µM (inactive) and the GI50 [3] was > 100 µM (inactive). The GI50 [4] was > 100 µM (inactive), the GI50 [5] was > 100 µM (inactive) and the GI50 [6] was > 100 µM (inactive). The GI50 [7] was 50.5 µM (inactive), the GI50 [8] was > 100 µM (inactive) and the GI50 [9] was 24.6 µM (inactive). For the same compound, the GI50 [10] was 37 µM, the GI50 [11] was > 100 µM (inactive) and the GI50 [12] was > 100 µM (inactive). The GI50 [13] was > 100 µM (inactive), the GI50 [14] was 66.4 µM (inactive) and the GI50 [15] was 86.1 µM (inactive). The GI50 [16] was > 100 µM (inactive), the GI50 [17] was > 100 µM (inactive) and the GI50 [18] was > 100 µM (inactive). The GI50 [19] was > 100 µM (inactive), the GI50 [20] was 87.5 µM (inactive) and the GI50 [21] was 83.9 µM (inactive). The GI50 [22] was > 100 µM (inactive), the GI50 [23] was > 100 µM (inactive) and the GI50 [24] was 29.8 µM (inactive). For the same compound, the GI50 [25] was 34.7 µM (inactive), the GI50 [26] was 1.62 µM (inactive) and the GI50 [27] was 35 µM (inactive). For the same compound, the GI50 [28] was > 100 µM (inactive), the GI50 [29] was > 100 µM (inactive) and the GI50 [30] was 19.8 µM (inactive). The GI50 [31] was 42.3 µM (inactive), the GI50 [32] was > 100 µM (inactive) and the GI50 [33] was 59.2 µM (inactive). The GI50 [34] was > 100 µM (inactive), the GI50 [35] was 87.3 µM (inactive) and the GI50 [36] was 55.1 µM (inactive). For the same compound, the GI50 [37] was > 100 µM (inactive), the GI50 [38] was > 100 µM (inactive) and the GI50 [39] was > 100 µM (inactive). For the same compound, the GI50 [40] was > 100 µM (inactive), the GI50 [41] was > 100 µM (inactive) and the GI50 [42] was > 100 µM (inactive). For the same compound, the GI50 [43] was > 100 µM (inactive), the GI50 [44] was > 100 µM (inactive) and the GI50 [45] was 60.3 µM (inactive). The GI50 [46] was > 100 µM (inactive), the GI50 [47] was 27.6 µM (inactive) and the GI50 [48] was 34 µM (inactive). For the same compound, the GI50 [49] was > 100 µM (inactive), the GI50 [50] was > 100 µM (inactive) and the GI50 [51] was 28.1 µM (inactive). For the same compound, the GI50 [52] was 34.7 µM (inactive), the GI50 [53] was > 100 µM (inactive) and the GI50 [54] was > 100 µM (inactive). For the same compound, the GI50 [55] was > 100 µM (inactive).
